Patent publication US20050118129A1, “Gentle and enhanced preservative systems” (priority 2003, published 2005)

How the values were obtained:
[1] = system: Staphylococcus aureus (ATCC 6538); assay: Comparison of strength between saccharides, preservative efficacy against bacteria; type: cell-based
Protocol: (§1) The preservative efficacy of various saccharides and a cationic polysaccharide were tested against one bacteria, i.e., Staphylococcus aureus (ATCC 6538), and against one fungus, i.e., Aspergillus niger (ATCC 16404). Acceptance criteria for the bacteria established that the number of viable bacteria, recovered per ml, be reduced by not less than 3.0 logs at 14 days. After the rechallenge at day 14, the concentration of bacteria shall be reduced by at least 3.0 logs at day 28. Acceptance criteria for the fungus established that the number of viable yeasts and molds, recovered per ml, remain at or below the initial concentrations within an experimental error of ±0.5 logs within 14 days. After day 28, the concentration of mold and yeast shall remain at or below the concentrations after rechallenge within experimental error of ±0.5 logs. Results of the saccharide/cationic polysaccharide preservative efficacy test are set forth below in Table 1.

[2] = system: Aspergillus niger (ATCC 16404); assay: Comparison of strength between saccharides, preservative efficacy against fungus; type: cell-based
Protocol: as §1

Row | SMILES | Log Reduction of Staphylococcus aureus (ATCC 6538) at 28 Days (Bacteria) [1] [Log] | Log Reduction of Aspergillus niger (ATCC 16404) at 28 Days (Fungus) [2] [Log]
1 | O=C[C@H](O)[C@@H](O)[C@H](O)[C@H](O)CO [D-Glucose] | 1.9 | 3.7
2 | O=C[C@H](O)[C@@H](O)[C@@H](O)[C@H](O)CO [Galactose] | 2.2 | 1.4
3 | OC[C@@H](O)[C@@H](O)[C@H](O)[C@H](O)CO [Mannitol] | 2.0 | 2.4
4 | CO[C@H]1O[C@H](CO)[C@@H](O)[C@H](O)[C@H]1O [Methyl-α-D-gluco-pyranose] | 1.7 | 1.6
5 | CO[C@H]1O[C@H](CO)[C@@H](O)[C@H](O)[C@H]1O [Methyl-α-D-gluco-pyranoside] | 1.2 | 2.9
6 | OC[C@H]1O[C@H](O[C@H]2O[C@H](CO)[C@@H](O)[C@H](O)[C@H]2O)[C@H](O)[C@@H](O)[C@@H]1O [Trehalose] | 1.3 | 2.0
7 | O=C(CO)[C@@H](O[C@H]1O[C@H](CO)[C@@H](O)[C@H](O)[C@H]1O)[C@H](O)[C@H](O)CO [Turanose] | 1.4 | 2.1
